Measured values published in patent US12600713B2, “Crystalline forms of 6-((6,7-dimethoxyquinazolin-4-yl)oxy)-N,2-dimethylbenzofuran-3-carboxamide” (HUTCHMED LIMITED, priority 2014, dated 2026).

Assay: Stability of Form I under high temperature, high humidity and illumination conditions (influence factor experiment, 10 days)
Format: physicochemical
Experimental: Determination method: the test sample of Form I prepared in Example 1 was added to a culture dish, which was uncovered and put in a sealed clean container; then the container was placed under the conditions of the temperature of 60° C., the temperature of 25° C. and the relative humidity of 92.5%±5%, and the illumination of 4500 lx±500 lx respectively for 10 days; then sampled, investigated the purity and crystalline form of the sample, and compared the results of the investigation, which were shown in the following table.

CNC(=O)c1c(C)oc2cc(Oc3ncnc4cc(OC)c(OC)cc34)ccc12 [Form I, 6-((6,7-dimethoxyquinazolin-4-yl)oxy)-N,2-dimethylbenzofuran-3-carboxamide]
Purity A% (0 day (initial sample, Form I of Example 1)): 98.94 A% | Purity A% (25° C., relative humidity 92.5 ± 5% RH, open dish, 10 days): 98.94 A% | Purity A% (60° C., open dish, 10 days): 98.94 A% | chemical purity and crystalline form after storage (stability conclusion) (high temperature, high humidity and illumination conditions for 10 days): not changed | Purity A% (illumination 4500 lx ± 500 lx, open dish, 10 days): 98.94 A%
